Test results: US5798247A, “Organic-chemical compound with ice-inhibitory action” (BASF Aktiengesellschaft, priority 1997, dated 1998)

Target: T1, interleukin converting enzyme (ICE) (Homo sapiens, UniProt P29466)
T1 sequence (P29466 120-297 limits assumed): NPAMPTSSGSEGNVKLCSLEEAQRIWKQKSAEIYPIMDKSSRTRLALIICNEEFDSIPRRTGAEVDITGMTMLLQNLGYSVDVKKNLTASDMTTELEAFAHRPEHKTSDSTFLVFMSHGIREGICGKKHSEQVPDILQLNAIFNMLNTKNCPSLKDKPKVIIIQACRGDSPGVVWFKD
T1 sequence (P29466 317-404 limits assumed): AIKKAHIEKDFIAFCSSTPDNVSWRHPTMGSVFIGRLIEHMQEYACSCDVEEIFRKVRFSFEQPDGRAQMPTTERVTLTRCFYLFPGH
Assay: ICE inhibition (inhibition constant)
Format: biochemical
Settings: reversible covalent binding (thiohemiacetal linkage) to ICE

Q: How did the Ki turn out when `O=C(c1ccccc1)c1ccccn1` [2-Benzoylpyridine] was run?
A: The Ki was about 1000 nM.
